Results reported in US20180230519A1, “METHODS AND KITS FOR SELECTING TREATMENT FOR ORAL INFECTIONS” (OraVital Inc., priority 2017, published 2018).
Like-named read-outs stand apart in the source and are kept apart here.

What was measured:
[1] = Solubility in water; assay type: physicochemical
Protocol: A metronidazole-nystatin mixture was prepared for use as an oral rinse to treat halitosis, gingivitis, tonsillitis, and/or mild to moderate periodontal disease. Tablets of metronidazole (APO-Metronidazole™, Apotex Corp.) were crushed and grounded, the larger particles filtered out, and the fine particles mixed with nystatin suspension or nystatin powder (Nilstat™, Alimed or PMS PharmaScience) in distilled water.

[2] = tested on: oral malodor and periodontal disease; conditions: human, in vivo
Protocol: (§1) Tongue base, tongue dorsum, and proximal areas of the dentition were evaluated for odors. Biofilm samples from these areas were taken from each patient. A Gram stain analysis provided morphological information on the microorganisms present in the oral cavity. In addition, the microbiology of the teeth and tongue was tested with a BANA strip for red complex clusters. Six-point periodontal probing was used to assess pocket depth and bleeding points.
(§2) Treatment initially consisted of rinsing with chlorhexidine 0.2% for 2 weeks, twice daily.
(§3) The treatment chosen was the metronidazole-nystatin rinse prepared as described in Example 3. Three times a day, patients dispensed a “capful” (2 ml) of this mixture, swished and gargled for 30 seconds, and expectorated the contents. Once per day, they flossed immediately after rinsing. After each rinse with antibiotic mixture, patients were to abstain from eating or drinking for 30 minutes. After 2 weeks of rinsing, patients returned to the clinic for an evaluation of treatment. Breath odor measurements and periodontal measurements were repeated, and compared with those taken at the initial appointment. Microbiology samples of the tongue base, tongue dorsum, and teeth were taken, analyzed, and compared with the pre-treatment samples. Patients were then placed on chlorhexidine 0.2% for 2 more weeks, followed by routine rinsing with non-prescription mouthwashes that the patient selected.

[3] = tested on: Aggregatibacter actinomycetemcomitans; conditions: general statement, no test described; cited from earlier work
[4] = tested on: oral malodor and periodontal disease; assay: Clinical study of antibiotic antifungal rinse in patients with halitosis
Protocol: as §1, §2, §3

What does the source list for `Cc1ncc([N+](=O)[O-])n1CCO` [metronidazole]?
solubility in water [1]: sparingly soluble or practically insoluble; side effects [2]: systemic side effects; Aggregatibacter actinomycetemcomitans responds (share of the time) [3]: about 50 % of the time

For `CCC[C@@H]1C[C@@H](C(=O)N[C@@H]([C@H]2O[C@H](SC)[C@H](O)[C@@H](O)[C@H]2O)[C@H](C)Cl)N(C)C1` [clindamycin], which side effects ([4]; systemic metronidazole and clindamycin, followed by 0.2% chlorhexidine) is on record?
The side effects was “systemic side effects”.

With `CC1(C)S[C@@H]2[C@H](NC(=O)[C@H](N)c3ccc(O)cc3)C(=O)N2[C@H]1C(=O)O` [amoxicillin] as the compound, how does the “response of Aggregatibacter actinomycetemcomitans” value [3] read?
Its value is “responds best”.

Which “reduction of oral malodor” value ([4]; chlorhexidine 0.2% rinse alone, 2 weeks, twice daily) does the source give for `[H]/N=C(\N/C(=N/[H])NCCCCCCNC(=N)NC(=N)Nc1ccc(Cl)cc1)Nc1ccc(Cl)cc1` [chlorhexidine] here?
The value was “insufficient to completely reduce oral malodor”.

Which solubility in water ([1]; water, form a suspension or dispersion) does the source give for `C[C@@H]1[C@H](O)[C@@H](C)/C=C/C=C/CC/C=C/C=C/C=C/C=C/C(O[C@H]2O[C@H](C)[C@@H](O)[C@H](N)[C@@H]2O)CC2O[C@](O)(CC(O)C(O)CCC(O)CC(O)CC(O)CC(=O)O[C@H]1C)CC(O)C2C(=O)O` (stereo partly shown) [nystatin] here?
Its solubility in water is “sparingly soluble or practically insoluble”.
